The text below walks through data of patent US9120785B2, “Pyridyl aminopyridines as Syk inhibitors” (Merck Sharp & Dohme Corp., priority 2011, dated 2015).

Where only a bound is given, the exact number is not on record here.

The target in the first assay is recombinant human GST-Syk (Homo sapiens (Human), UniProt P43405). Kind of assay: Homogeneous Time-Resolved Fluorescence (HTRF) assay for the recombinant human Syk enzyme. It is filed as biochemical. Conditions: recombinant human GST-Syk 5 pM, ATP 25 μM, 10-dose titration; read-out: rhSyk (nM) IC50. The method, then:
Homogeneous Time-Resolved Fluorescence (HTRF) Assay for the Recombinant Human Syk Enzyme:
A recombinant GST-hSyk fusion protein was used to measure potency of compounds to inhibit human Syk activity. The recombinant human GST-Syk ([…] #08-176) (5 pM final concentration) was incubated with various concentrations of the inhibitor diluted in DMSO (0.1% final concentration) for 10 minutes at room temperature in 15 mM Tris-HCl (pH 7.5), 0.01% tween 20, 2 mM DTT in 384 well plate format. To initiate the reaction the biotinylated substrate peptide (250 nM final concentration) that contains the phosphorylation site for Syk was added with magnesium (5 mM final concentration) and ATP (25 μM final concentration). Final volume of the reaction was 10 μL. Phosphorylation of the peptide was allowed to proceed for 45 minutes at room temperature. To quench the reaction and detect the phosphorylated product, 2 nM of a Europium-anti-phosphotyrosine antibody (Perkin Elmer #AD0161) and 70 nM SA-APC (Perkin-Elmer #CR130-100) were added together in 15 mM Tris pH 7.5, 40 mM EDTA, 0.01% tween 20. Final volume of the quenching solution was 10 μL. The resulting HTRF signal was measured after 30 minutes on an EnVision (Perkin-Elmer) reader using a time-resolved fluorescence protocol.
Background: Time-resolved FRET reads energy transfer from a long-lived donor to a nearby acceptor.
On to `CCC(O)(c1ncc(-c2cc(C)cc(Nc3cc(C4CC4)ccn3)n2)s1)[C@H]1CC[C@H](C(N)=O)CC1` (mixture of isomers) [Example 2, racemic mixture, trans-4-[1-(5-{6-[(4-cyclopropylpyridin-2-yl)amino]-4-methylpyridin-2-yl}-1,3-thiazol-2-yl)-1-hydroxypropyl]cyclohexanecarboxamide], for which the IC50 (as a rule, the concentration at which inhibition is half-maximal) was 3.1 nM. For the compound `CCC(O)(c1ncc(-c2cc(C)cc(Nc3cc(C4CC4)ccn3)n2)s1)[C@H]1CC[C@H](C(=O)O)CC1` (single isomer, unassigned) [Example 1, Enantiomer 1, trans-4-[1-(5-{6-[(4-cyclopropylpyridin-2-yl)amino]-4-methylpyridin-2-yl}-1,3-thiazol-2-yl)-1-hydroxypropyl]cyclohexanecarboxylic acid], the IC50 came out at 2.9 nM.

Still in this assay, the particulars now being: recombinant human GST-Syk 5 pM, ATP 25 μM; class symbols; read-out: rhSyk activity (IC50).
Take `CCC(O)(c1ncc(-c2cc(C)cc(Nc3cc(C4CC4)ccn3)n2)s1)[C@H]1CC[C@H](C(=O)O)CC1` (mixture of isomers) [Example 1, racemic, trans-4-[1-(5-{6-[(4-Cyclopropylpyridin-2-yl)amino]-4-methylpyridin-2-yl}-1,3-thiazol-2-yl)-1-hydroxypropyl]cyclohexanecarboxylic acid]: the half-inhibitory concentration (IC50) is not above 100 nM. Still for that read-out and setting: the value for `CCC(O)(c1ncc(-c2cc(C)cc(Nc3cc(C4CC4)ccn3)n2)s1)[C@H]1CC[C@H](C(N)=O)CC1` (mixture of isomers) [Example 2, racemic mixture, trans-4-[1-(5-{6-[(4-cyclopropylpyridin-2-yl)amino]-4-methylpyridin-2-yl}-1,3-thiazol-2-yl)-1-hydroxypropyl]cyclohexanecarboxamide] was not above 100 nM; that for `Cc1ccnc(Nc2cc(C)cc(-c3cnc(C(C)(O)[C@H]4CC[C@H](C(=O)O)CC4)s3)n2)c1` (relative stereo) [Example 14-1, trans-4-[1-hydroxy-1-(5-{4-methyl-6-[(4-methylpyridin-2-yl)amino]pyridin-2-yl}-1,3-thiazol-2-yl)ethyl]cyclohexanecarboxylic acid] was not above 100 nM; that for `COc1ccnc(Nc2cc(C)cc(-c3cnc(C(C)(O)[C@H]4CC[C@H](C(=O)O)CC4)s3)n2)c1` (relative stereo) [Example 14-3, trans-4-[1-hydroxy-1-(5-{6-[(4-methoxypyridin-2-yl)amino]-4-methylpyridin-2-yl}-1,3-thiazol-2-yl)ethyl]cyclohexanecarboxylic acid] was not above 100 nM. On the same count and under the same terms, next, `Cc1cc(Nc2cc(C)c(Cl)cn2)nc(-c2cnc(C(C)(O)[C@H]3CC[C@H](C(=O)O)CC3)s2)c1` (relative stereo) [Example 14-5, trans-4-[1-(5-{6-[(5-chloro-4-methylpyridin-2-yl)amino]-4-methylpyridin-2-yl}-1,3-thiazol-2-yl)-1-hydroxyethyl]cyclohexanecarboxylic acid]: not above 100 nM; `CCCCOC(=O)[C@H]1CC[C@H](C(C)(O)c2ncc(-c3cc(C)cc(Nc4cc(C5CC5)ccn4)n3)s2)CC1` (relative stereo) [Example 14-6, butyl trans-4-[1-(5-{6-[(4-cyclopropylpyridin-2-yl)amino]-4-methylpyridin-2-yl}-1,3-thiazol-2-yl)-1-hydroxyethyl]cyclohexanecarboxylate]: 100 to 1000 nM; `Cc1cc(Nc2cc(C3CC3)ccn2)nc(-c2cnc(C(C)(O)[C@H]3CC[C@H](C(=O)O)CC3)s2)c1` (relative stereo) [Example 14-7, trans-4-[1-(5-{6-[(4-cyclopropylpyridin-2-yl)amino]-4-methylpyridin-2-yl}-1,3-thiazol-2-yl)-1-hydroxyethyl]cyclohexanecarboxylic acid]: not above 100 nM. On the same count and under the same terms, next, `Cc1cc(Nc2cc(C(C)C)ccn2)nc(-c2cnc(C(C)(O)[C@H]3CC[C@H](C(=O)O)CC3)s2)c1` (relative stereo) [Example 14-8, trans-4-{1-hydroxy-1-[5-(4-methyl-6-{[4-(propan-2-yl)pyridin-2-yl]amino}pyridin-2-yl)-1,3-thiazol-2-yl]ethyl}cyclohexanecarboxylic acid]: not above 100 nM.

`COC(=O)[C@H]1CC[C@H](C(O)c2ncc(-c3cc(C)cc(Nc4cc(C(F)(F)F)ccn4)n3)s2)CC1` (relative stereo) [Example 14-27, methyl trans-4-{hydroxy[5-(4-methyl-6-{[4-(trifluoromethyl)pyridin-2-yl]amino}pyridin-2-yl)-1,3-thiazol-2-yl]methyl}cyclohexanecarboxylate]: the IC50 is not above 100 nM.

Turning to `COc1ccnc(Nc2cccc(-c3cnc(C(C)(O)[C@H]4CC[C@H](C(=O)O)CC4)s3)n2)c1` (relative stereo) [Example 14-41, trans-4-[1-hydroxy-1-(5-{6-[(4-methoxypyridin-2-yl)amino]pyridin-2-yl}-1,3-thiazol-2-yl)ethyl]cyclohexanecarboxylic acid], the IC50 is not above 100 nM.

With `CC(O)(c1ncc(-c2cccc(Nc3cc(C(F)F)ccn3)n2)s1)[C@H]1CC[C@H](C(=O)O)CC1` (relative stereo) [Example 14-42, trans-4-{1-[5-(6-{[4-(difluoromethyl)pyridin-2-yl]amino}pyridin-2-yl)-1,3-thiazol-2-yl]-1-hydroxyethyl}cyclohexanecarboxylic acid], the concentration for half-maximal inhibition (IC50) is not above 100 nM. Same read-out and setting: next, `CC(C)c1ccnc(Nc2cccc(-c3cnc(C(C)(O)[C@H]4CC[C@H](C(=O)O)CC4)s3)n2)c1` (relative stereo) [Example 14-43, trans-4-{1-hydroxy-1-[5-(6-{[4-(propan-2-yl)pyridin-2-yl]amino}pyridin-2-yl)-1,3-thiazol-2-yl]ethyl}cyclohexanecarboxylic acid]: not above 100 nM; `CCC(O)(c1ncc(-c2cc(C)cc(Nc3cc(C4CC4)ccn3)n2)s1)[C@H]1CC[C@H](C(=O)O)CC1` (single isomer, unassigned) [Example 1, Enantiomer 1, trans-4-[1-(5-{6-[(4-cyclopropylpyridin-2-yl)amino]-4-methylpyridin-2-yl}-1,3-thiazol-2-yl)-1-hydroxypropyl]cyclohexanecarboxylic acid]: not above 100 nM. Same read-out and setting: the value for `CCC(O)(c1ncc(-c2cc(C)cc(Nc3cc(C4CC4)ccn3)n2)s1)[C@H]1CC[C@H](C(N)=O)CC1` (single isomer, unassigned) [Example 2, Enantiomer 1, trans-4-[1-(5-{6-[(4-cyclopropylpyridin-2-yl)amino]-4-methylpyridin-2-yl}-1,3-thiazol-2-yl)-1-hydroxypropyl]cyclohexanecarboxamide] was not above 100 nM; that for `Cc1cc(Nc2cccc(-c3cnc(C(C)(O)[C@H]4CC[C@H](C(=O)O)CC4)s3)n2)ncc1F` (single isomer, unassigned) [Example 5, trans-4-[(1R or 1S)-1-(5-{6-[(5-Fluoro-4-methylpyridin-2-yl)amino]pyridin-2-yl}-1,3-thiazol-2-yl)-1-hydroxyethyl]cyclohexanecarboxylic acid] was not above 100 nM; that for `Cc1cc(Nc2cccc(-c3cnc(C(C)(O)[C@H]4CC[C@H](C(=O)O)CC4)s3)n2)ncc1F` (single isomer, unassigned) [Example 6, trans-4-[(1R or 1S)-1-(5-{6-[(5-Fluoro-4-methylpyridin-2-yl)amino]pyridin-2-yl}-1,3-thiazol-2-yl)-1-hydroxyethyl]cyclohexanecarboxylic acid] was not above 100 nM.

For the compound `CC(O)(c1ncc(-c2cccc(Nc3cc(C(F)(F)F)ccn3)n2)s1)[C@H]1CC[C@H](C(=O)O)CC1` (single isomer, unassigned) [Example 7, trans-4-{(1R or 1S)-1-hydroxy-1-[5-(6-{[4-(trifluoromethyl)pyridin-2-yl]amino}pyridin-2-yl)-1,3-thiazol-2-yl]ethyl}cyclohexanecarboxylic acid], the IC50 is not above 100 nM. Same read-out and setting: the value for `CC(O)(c1ncc(-c2cccc(Nc3cc(C(F)(F)F)ccn3)n2)s1)[C@H]1CC[C@H](C(=O)O)CC1` (single isomer, unassigned) [Example 8, trans-4-{(1R or 1S)-1-Hydroxy-1-[5-(6-{[4-(trifluoromethyl)pyridin-2-yl]amino}pyridin-2-yl)-1,3-thiazol-2-yl]ethyl}cyclohexanecarboxylic acid] was not above 100 nM.
